Test results taken from patent US10588889B2 (priority 2015, dated 2020).

Columns and labels:
[1] = test system: nociceptive sensitization; assay: Subject with opioid-induced increased nociceptive sensitization switched to compound (Example 4); type: in vivo; settings: subject switched from opioid to pharmaceutical composition of compound
Description: A subject is identified as having increased nociceptive sensitization due to being administered an opioid for pain relief. The subject is switched from the opioid to a pharmaceutical composition comprising Compound 140 or Compound 265. The subject's nociceptive sensitization is decreased while maintaining the pain relief.

[2] = test system: opioid induced hyperalgesia; assay: Human subject with morphine-induced hyperalgesia switched to compound (Example 3); type: in vivo; settings: morphine stopped, compound administered
[3] = test system: mouse model of opioid induced hyperalgesia; settings: in vivo, sc

Row | Compound | nociceptive sensitization after switch from opioid [1] | opioid induced hyperalgesia in human subject after stopping morphine [2] | % non-responses to 10 applications of a 0.4 g von Frey filament (hyperalgesia induction) [3]
1 | COc1ccsc1CNCC[C@@]1(c2ccccn2)CCOC2(CCCC2)C1 [Compound 140] | decreased | treated and reduced | 
2 | COc1ccc2c3c1O[C@H]1C(=O)CC[C@@]4(O)[C@@H](C2)N(C)CC[C@]314 [Oxycodone] |  |  | decreased the % non-responses
